Results: the supplement of paper PMC11061612

Key:
[1] = system: HPAF-II (Pancreatic Carcinoma); test: Bliss excess, mean over the matrix (fraction); higher = more synergy
Summary of the method: (§1)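 Bliss excess equals the observed combination effect minus the expected value EA + EB − EA·EB, where EA and EB are the effects of each agent alone. Combination Emax is the second-highest inhibition within the matrix. Inhibition was scaled from CellTiter-Glo 2.0 luminescence, with 0 set by vehicle wells and 1 by blank wells, after 72 hours of two-drug dosing of cells plated in 1536-well plates.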

NCI-H226 (Mesothelioma) = test: combination Emax (second highest fraction inhibited in the dose matrix, 72 h); higher = more inhibition; extreme values may be limits of the assay
Summary of the method: as §1

[2] = system: SKG-IIIa (Cervical Carcinoma); test: as above
Summary of the method: as §1

[3] = system: LS-1034 (Colorectal Carcinoma); test: as above
Summary of the method: as §1

[4] = system: NCI-H596 (Other Solid Carcinomas); test: as above
Summary of the method: as §1

[5] = system: SiHa (Cervical Carcinoma); test: as above
Summary of the method: as §1

[6] = system: SNU-423 (Hepatocellular Carcinoma); test: as above
Summary of the method: as §1

[7] = system: BHT-101 (Thyroid Gland Carcinoma); test: as above
Summary of the method: as §1

[8] = system: TUR (Acute Myeloid Leukemia); test: as above
Summary of the method: as §1

[9] = system: SAT (Head and Neck Carcinoma); test: as above
Summary of the method: as §1

[10] = system: NCI-H3118 (Head and Neck Carcinoma); test: as above
Summary of the method: as §1

[11] = system: MM1S (Plasma Cell Myeloma); test: as above
Summary of the method: as §1

[12] = system: NCI-H1341 (Small Cell Lung Carcinoma); test: as above
Summary of the method: as §1

[13] = system: HPAF-II (Pancreatic Carcinoma); test: as above
Summary of the method: as §1

[14] = system: ZR-75-30 (Breast Carcinoma); test: as above
Summary of the method: as §1

[15] = system: HT-1080 (Other Solid Carcinomas); test: as above
Summary of the method: as §1

SMILES | Bliss excess [1] | combination Emax (NCI-H226 (Mesothelioma)) | combination Emax [2] | combination Emax [3] | combination Emax [4] | combination Emax [5] | combination Emax [6] | combination Emax [7] | combination Emax [8] | combination Emax [9] | combination Emax [10] | combination Emax [11] | combination Emax [12] | combination Emax [13] | combination Emax [14] | combination Emax [15]
NC1(C(=O)N[C@@H](CCO)c2ccc(Cl)cc2)CCN(c2ncnc3[nH]ccc23)CC1 [Capivasertib] + C[C@@H]1COCCN1C2=NC(=NC(=C2)C3(CC3)[S@](=N)(=O)C)C4=C5C=CNC5=NC=C4 [AZD6738] (first compound max 10 µM, 7x7, partner max 10 µM) | -0.0105 | 0.358 | 0.5 | 0.746 | 0.575 | 0.413 | 0.586 | 0.681 | 0.962 | 0.579 | 0.603 | 0.99 | 0.928 | 0.5 | 0.469 | 0.435
Cc1c2c(nn1C)CSCc1cc(n(C)n1)CSc1cc(c3ccccc3c1)OCCCc1c(C(=O)O)n(C)c3c-2c(Cl)ccc13 [AZD5991] + C1CN(CCC1(C(=O)N[C@@H](CCO)C2=CC=C(C=C2)Cl)N)C3=NC=NC4=C3C=CN4 [Capivasertib] (first compound max 1 µM, 7x7, partner max 3 µM) |  | 0.2 | 0.18 | 0.22 | 0.318 | 0.23 | 0.341 | 0.418 | 0.913 | 0.738 | 0.245 | 1 | 0.647 |  | 0.567 | 0.139
COc1cccc(OCCCN)c1-c1cc(Nc2cnc(C#N)cn2)n[nH]1 [Prexasertib] + CCc1c2c(nc3ccc(O)cc13)-c1cc3c(c(=O)n1C2)COC(=O)[C@]3(O)CC [SN-38] (first compound max 1 µM, 7x7, partner max 0.3 µM) |  | 0.4 | 0.595 | 0.897 | 0.735 | 0.578 | 0.779 | 0.91 | 1 | 0.618 | 0.872 | 1 | 0.987 |  | 0.14 | 0.651
Cc1c2c(nn1C)CSCc1cc(n(C)n1)CSc1cc(c3ccccc3c1)OCCCc1c(C(=O)O)n(C)c3c-2c(Cl)ccc13 [AZD5991] + C[C@@H]1COCCN1C2=NC(=NC(=C2)C3(CC3)[S@](=N)(=O)C)C4=C5C=CNC5=NC=C4 [AZD6738] (first compound max 1 µM, 7x7, partner max 10 µM) |  | 0.193 | 0.333 | 0.673 | 0.318 | 0.318 | 0.471 | 0.859 | 0.99 | 0.79 | 0.601 | 1 | 0.71 |  | 0.429 | 0.495
Cc1cc2ncnn2cc1Nc1ncc2c(n1)n(C1CCOCC1)c(=O)n2C [AZD7648] + C=CCn1c(=O)c2cnc(Nc3ccc(N4CCN(C)CC4)cc3)nc2n1-c1cccc(C(C)(C)O)n1 [AZD1775] (first compound max 10 µM, partner max 1 µM) |  | 0.297 | 0.43 | 0.379 | 0.357 | 0.308 | 0.497 | 0.471 | 0.736 | 0.623 | 0.897 | 0.811 | 0.69 |  | 0.137 | 0.405
COc1cccc(OCCCN)c1-c1cc(Nc2cnc(C#N)cn2)n[nH]1 [Prexasertib] + O=C(c1cc(Cc2n[nH]c(=O)c3ccccc23)ccc1F)N1CCN(C(=O)C2CC2)CC1 [Olaparib] (first compound max 1 µM, 7x7, partner max 10 µM) |  | 0.275 | 0.373 | 0.685 | 0.642 | 0.404 | 0.77 | 0.774 | 1 | 0.595 | 0.837 | 0.931 | 0.884 |  | 0.202 | 0.542
CC1(C)CCC(CN2CCN(c3ccc(C(=O)NS(=O)(=O)c4ccc(NCC5CCOCC5)c([N+](=O)[O-])c4)c(Oc4cnc5[nH]ccc5c4)c3)CC2)=C(c2ccc(Cl)cc2)C1 [Venetoclax] + COc1cc(Nc2ncc3c(n2)-c2ccc(Cl)cc2C(c2c(F)cccc2OC)=NC3)ccc1C(=O)O [Alisertib] (first compound max 1 µM, 7x7, partner max 10 µM) |  | 0.224 | 0.286 | 0.227 | 0.381 | 0.212 | 0.361 | 0.672 | 0.628 | 0.545 | 0.312 | 0.423 | 0.968 |  | 0.137 | 0.299
Cc1cc2ncnn2cc1Nc1ncc2c(n1)n(C1CCOCC1)c(=O)n2C [AZD7648] + CCN(CCO)CCCOc1ccc2c(Nc3cc(CC(=O)Nc4cccc(F)c4)[nH]n3)ncnc2c1 [AZD2811] (first compound max 10 µM, 7x7, partner max 1 µM) |  | 0.253 | 0.297 | 0.264 | 0.243 | 0.335 | 0.341 | 0.25 | 0.284 | 0.376 | 0.239 | 0.346 | 0.371 |  | 0.141 | 0.261
CC1(C)CCC(CN2CCN(c3ccc(C(=O)NS(=O)(=O)c4ccc(NCC5CCOCC5)c([N+](=O)[O-])c4)c(Oc4cnc5[nH]ccc5c4)c3)CC2)=C(c2ccc(Cl)cc2)C1 [Venetoclax] + C=CCn1c(=O)c2cnc(Nc3ccc(N4CCN(C)CC4)cc3)nc2n1-c1cccc(C(C)(C)O)n1 [AZD1775] (first compound max 1 µM, partner max 1 µM) |  | 0.268 | 0.271 | 0.56 | 0.259 | 0.223 | 0.732 | 0.489 | 0.911 | 0.545 | 0.836 | 0.908 | 0.808 |  | 0.159 | 0.349
CN(CCO)CC[C@H](CSc1ccccc1)Nc1ccc(S(=O)(=O)NC(=O)c2ccc(N3CCC([C@@H](O)c4ccccc4-c4ccc(Cl)cc4)CC3)cc2)cc1S(=O)(=O)C(F)(F)F [AZD4320] + C[C@@H](Nc1cc(F)cc(F)c1)c1cc(C(=O)N(C)C)cc2c(=O)cc(N3CCOCC3)oc12 [AZD8186] (first compound max 1 µM, 7x7, partner max 3 µM) |  | 0.279 | 0.471 | 0.334 | 0.381 | 0.33 | 0.547 | 0.616 | 0.19 | 0.446 | 0.39 | 0.988 | 0.99 |  | 0.285 | 0.704
CCN(CCO)CCCOc1ccc2c(Nc3cc(CC(=O)Nc4cccc(F)c4)[nH]n3)ncnc2c1 [AZD2811] + O=C(c1cc(Cc2n[nH]c(=O)c3ccccc23)ccc1F)N1CCN(C(=O)C2CC2)CC1 [Olaparib] (first compound max 1 µM, 7x7, partner max 10 µM) |  | 0.236 | 0.147 | 0.192 | 0.238 | 0.173 | 0.264 | 0.201 | 0.285 | 0.215 | 0.208 | 0.291 | 0.294 |  | 0.185 | 0.215
CC1(C)CCC(CN2CCN(c3ccc(C(=O)NS(=O)(=O)c4ccc(NCC5CCOCC5)c([N+](=O)[O-])c4)c(Oc4cnc5[nH]ccc5c4)c3)CC2)=C(c2ccc(Cl)cc2)C1 [Venetoclax] + C[C@@H](Nc1cc(F)cc(F)c1)c1cc(C(=O)N(C)C)cc2c(=O)cc(N3CCOCC3)oc12 [AZD8186] (first compound max 1 µM, 7x7, partner max 3 µM) |  | 0.0928 | 0.168 | 0.0835 | 0.241 | 0.243 | 0.383 | 0.272 | 0.209 | 0.345 | 0.0963 | 0.288 | 0.583 |  | 0.24 | 0.164
COc1cccc(OCCCN)c1-c1cc(Nc2cnc(C#N)cn2)n[nH]1 [Prexasertib] + CN(C)CCCOc1ccc(-c2ccc3ncc4c(c3c2)n(C2CCOCC2)c(=O)n4C)cn1 [AZD0156] (first compound max 1 µM, 7x7, partner max 1 µM) |  | 0.179 | 0.389 | 0.724 | 0.414 | 0.293 | 0.713 | 0.799 | 1 | 0.579 | 0.858 | 0.847 | 0.869 |  | 0.117 | 0.563
Cc1cc2ncnn2cc1Nc1ncc2c(n1)n(C1CCOCC1)c(=O)n2C [AZD7648] + O=C(c1cc(Cc2n[nH]c(=O)c3ccccc23)ccc1F)N1CCN(C(=O)C2CC2)CC1 [Olaparib] (first compound max 10 µM, 7x7, partner max 10 µM) |  | 0.149 | 0.0374 | 0.0469 | 0.361 | 0.143 | 0.275 | 0.383 | 0.114 | 0.164 | 0.167 | 0.339 | 0.433 |  | 0.12 | 0.147
COc1cccc(OCCCN)c1-c1cc(Nc2cnc(C#N)cn2)n[nH]1 [Prexasertib] + C=CCn1c(=O)c2cnc(Nc3ccc(N4CCN(C)CC4)cc3)nc2n1-c1cccc(C(C)(C)O)n1 [AZD1775] (first compound max 1 µM, partner max 1 µM) |  | 0.393 | 0.527 | 0.835 | 0.65 | 0.487 | 0.878 | 0.881 | 1 | 0.666 | 0.906 | 0.963 | 0.982 |  | 0.137 | 0.576
C[C@@H]1COCCN1c1cc(C2([S@](C)(=N)=O)CC2)nc(-c2ccnc3[nH]ccc23)n1 [AZD6738] + O=C(c1cc(Cc2n[nH]c(=O)c3ccccc23)ccc1F)N1CCN(C(=O)C2CC2)CC1 [Olaparib] (first compound max 10 µM, 7x7, partner max 10 µM) |  | 0.207 | 0.444 | 0.56 | 0.5 | 0.228 | 0.576 | 0.663 | 0.907 | 0.371 | 0.64 | 0.642 | 0.755 |  | 0.213 | 0.45
